#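 96-well plates; 48 h exposure; 5 concentrations. Endpoints by linear interpolation between flanking doses. Not reached: highest tested concentration assigned. GI50 = concentration required for 50% inhibition of growth. Definition used: TGI = concentration required for complete inhibition of growth.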
# Assays:
# Assay in all cases: growth of human tumour cells (NCI), 48 h
# [1] = test system: HCC-2998 colon
# [2] = test system: NCI-H226 lung
# [3] = test system: NCI-H522 lung
# [4] = test system: HS 578T breast
# [5] = test system: OVCAR-5 ovarian
# [6] = test system: SN12C renal
# [7] = test system: SK-MEL-2 melanoma
# [8] = test system: MCF7 breast
# [9] = test system: NCI-H23 lung
# [10] = test system: DU-145 prostate
# [11] = test system: SK-MEL-28 melanoma
# [12] = test system: SK-OV-3 ovarian
# [13] = test system: MDA-MB-231 breast
# [14] = test system: OVCAR-3 ovarian
# [15] = test system: HOP-92 NSCLC
# [16] = test system: NCI/ADR-RES ovarian
# [17] = test system: UO-31 renal
# [18] = test system: HT29 colon
# [19] = test system: EKVX NSCLC
# [20] = test system: LOX IMVI melanoma
# [21] = test system: U251 CNS
# [22] = test system: UACC-62 melanoma
# [23] = test system: MALME-3M melanoma
# [24] = test system: MOLT-4 leukemia
# [25] = test system: RXF 393 renal
# [26] = test system: OVCAR-8 ovarian
# [27] = test system: MDA-MB-468 breast
# [28] = test system: CAKI-1 renal
# [29] = test system: SK-MEL-5 melanoma
# [30] = test system: CCRF-CEM leukemia
# [31] = test system: KM12 colon
# [32] = test system: SNB-19 CNS
# [33] = test system: SR leukemia
# [34] = test system: HCT-116 colon
# [35] = test system: SF-295 CNS
# [36] = test system: SNB-75 CNS
# [37] = test system: SW-620 colon
# [38] = test system: SF-268 CNS
# [39] = test system: SF-539 CNS
# [40] = test system: NCI-H460 lung
# [41] = test system: M14 melanoma
# [42] = test system: COLO 205 colon
# [43] = test system: ACHN renal
# [44] = test system: BT-549 breast
# [45] = test system: UACC-257 melanoma
# [46] = test system: MDA-MB-435
# [47] = test system: A498 renal
# [48] = test system: TK-10 renal
# [49] = test system: PC-3 prostate
# [50] = test system: 786-0 renal
# [51] = test system: HL-60(TB) leukemia
# [52] = test system: HCT-15 colon
# [53] = test system: A549 NSCLC
# [54] = test system: HOP-62 NSCLC
# [55] = test system: IGROV1 ovarian
# [56] = test system: OVCAR-4 ovarian
# [57] = test system: RPMI-8226 leukemia
# [58] = test system: T-47D breast
# [59] = test system: K-562 leukemia
smiles,measurement,setting,value
COc1ccc2[nH]c(O)c(N=NC(=O)COc3ccc(NC(=O)Nc4ccccc4)cc3)c2c1,GI50,[1],17.5 µM
same,TGI,[1],42.8 µM
same,GI50,[2],15 µM
same,TGI,[2],34.7 µM
same,GI50,[3],15.3 µM
same,TGI,[3],38.5 µM
same,GI50,[4],17.3 µM
same,TGI,[4],75.6 µM
same,GI50,[5],18.3 µM
same,TGI,[5],45.4 µM
same,GI50,[6],16.4 µM
same,TGI,[6],31.7 µM
same,GI50,[7],16.4 µM
same,TGI,[7],33.4 µM
same,GI50,[8],17.4 µM
same,TGI,[8],40.2 µM
same,GI50,[9],15.8 µM
same,TGI,[9],32.7 µM
same,GI50,[10],30.9 µM
same,TGI,[10],> 100 µM
same,GI50,[11],16.6 µM
same,TGI,[11],30.7 µM
same,GI50,[12],19.6 µM
same,TGI,[12],44 µM
same,GI50,[13],14.3 µM
same,TGI,[13],28.6 µM
same,GI50,[14],17.4 µM
same,TGI,[14],35.5 µM
same,GI50,[15],7.82 µM
same,TGI,[15],25.4 µM
same,GI50,[16],> 100 µM
same,TGI,[16],> 100 µM
same,GI50,[17],> 100 µM
same,TGI,[17],> 100 µM
same,GI50,[18],26 µM
same,TGI,[18],> 100 µM
same,GI50,[19],35.3 µM
same,TGI,[19],> 100 µM
same,GI50,[20],17 µM
same,TGI,[20],36.8 µM
same,GI50,[21],15.7 µM
same,TGI,[21],37.6 µM
same,GI50,[22],16.3 µM
same,TGI,[22],30.8 µM
same,GI50,[23],14.4 µM
same,TGI,[23],28.4 µM
same,GI50,[24],23.7 µM
same,TGI,[24],> 100 µM
same,GI50,[25],13.6 µM
same,TGI,[25],32.5 µM
same,GI50,[26],9.79 µM
same,TGI,[26],27.5 µM
same,GI50,[27],11.1 µM
same,TGI,[27],26.2 µM
same,GI50,[28],24.3 µM
same,TGI,[28],70.1 µM
same,GI50,[29],16.9 µM
same,TGI,[29],36.5 µM
same,GI50,[30],33.1 µM
same,TGI,[30],> 100 µM
same,GI50,[31],0.684 µM
same,TGI,[31],21 µM
same,GI50,[32],16.6 µM
same,TGI,[32],35.4 µM
same,GI50,[33],22.9 µM
same,TGI,[33],> 100 µM
same,GI50,[34],2.91 µM
same,TGI,[34],27.5 µM
same,GI50,[35],18.1 µM
same,TGI,[35],39.8 µM
same,GI50,[36],10.7 µM
same,TGI,[36],27.3 µM
same,GI50,[37],15.2 µM
same,TGI,[37],43.3 µM
same,GI50,[38],14.3 µM
same,TGI,[38],34.3 µM
same,GI50,[39],14.7 µM
same,TGI,[39],28.2 µM
same,GI50,[40],15.7 µM
same,TGI,[40],41.2 µM
same,GI50,[41],2.9 µM
same,TGI,[41],21.1 µM
same,GI50,[42],16.5 µM
same,TGI,[42],33.5 µM
same,GI50,[43],39.5 µM
same,TGI,[43],> 100 µM
same,TGI,[44],20.2 µM
same,GI50,[45],19.5 µM
same,TGI,[45],41.5 µM
same,GI50,[46],16.3 µM
same,TGI,[46],35.4 µM
same,GI50,[47],18.3 µM
same,TGI,[47],38.4 µM
same,GI50,[48],46.2 µM
same,TGI,[48],> 100 µM
same,GI50,[49],14.5 µM
same,TGI,[49],36.3 µM
same,GI50,[50],13.6 µM
same,TGI,[50],30.6 µM
same,GI50,[51],29.6 µM
same,TGI,[51],> 100 µM
same,GI50,[52],> 100 µM
same,TGI,[52],> 100 µM
same,GI50,[53],21.9 µM
same,TGI,[53],58.4 µM
same,GI50,[54],18.5 µM
same,TGI,[54],34.6 µM
same,GI50,[55],22.5 µM
same,TGI,[55],59.2 µM
same,GI50,[56],11.1 µM
same,TGI,[56],33 µM
same,GI50,[57],58 µM
same,TGI,[57],> 100 µM
same,GI50,[58],15.4 µM
same,TGI,[58],31.2 µM
same,GI50,[59],26.7 µM
same,TGI,[59],> 100 µM

# From PubChem BioAssay (NCI)
